Assay [1] has as its target T1, Neo1 (Saccharomyces cerevisiae, UniProt P40527).
T1 construct: full length (1151 residues), N-terminal triple FLAG tag, overexpressed in S. cerevisiae from pRS423 with GAP promoter; monomer, purified in LMNG/CHS
T1 sequence (P40527 1-1151): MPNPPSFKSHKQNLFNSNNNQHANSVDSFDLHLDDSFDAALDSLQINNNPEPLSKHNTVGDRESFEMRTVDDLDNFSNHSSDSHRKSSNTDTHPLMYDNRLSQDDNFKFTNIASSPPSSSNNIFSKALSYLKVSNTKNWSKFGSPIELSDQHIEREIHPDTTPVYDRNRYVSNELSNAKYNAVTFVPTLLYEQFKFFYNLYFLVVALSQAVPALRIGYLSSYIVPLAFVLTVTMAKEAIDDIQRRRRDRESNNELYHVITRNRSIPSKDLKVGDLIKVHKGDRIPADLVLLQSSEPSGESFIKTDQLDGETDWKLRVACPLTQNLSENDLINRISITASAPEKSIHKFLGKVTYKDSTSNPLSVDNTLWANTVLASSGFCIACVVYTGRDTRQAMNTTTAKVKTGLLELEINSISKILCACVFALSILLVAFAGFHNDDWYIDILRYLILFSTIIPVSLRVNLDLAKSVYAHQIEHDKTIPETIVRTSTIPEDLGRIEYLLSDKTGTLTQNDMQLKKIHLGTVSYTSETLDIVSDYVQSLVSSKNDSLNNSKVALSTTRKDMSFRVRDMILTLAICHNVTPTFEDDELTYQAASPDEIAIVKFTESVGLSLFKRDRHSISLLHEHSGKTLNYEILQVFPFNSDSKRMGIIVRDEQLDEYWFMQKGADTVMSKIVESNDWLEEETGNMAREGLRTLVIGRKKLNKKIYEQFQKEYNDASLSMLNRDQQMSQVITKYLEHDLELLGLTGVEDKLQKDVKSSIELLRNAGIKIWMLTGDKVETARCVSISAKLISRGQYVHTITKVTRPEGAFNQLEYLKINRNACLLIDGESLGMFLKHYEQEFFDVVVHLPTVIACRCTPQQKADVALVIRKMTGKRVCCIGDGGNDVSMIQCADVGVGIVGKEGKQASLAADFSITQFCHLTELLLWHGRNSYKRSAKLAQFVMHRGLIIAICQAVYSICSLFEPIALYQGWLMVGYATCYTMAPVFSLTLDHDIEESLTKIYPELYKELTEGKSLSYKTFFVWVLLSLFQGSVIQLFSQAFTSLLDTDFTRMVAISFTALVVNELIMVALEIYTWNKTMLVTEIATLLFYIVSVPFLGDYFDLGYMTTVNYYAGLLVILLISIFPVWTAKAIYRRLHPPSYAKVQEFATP
The assay can be described thus: lipid-stimulated ATP hydrolysis, released phosphate by BIOMOL Green. The format is biochemical. To be noted: 0.25 mM ATP, 10 mM MgCl2, pH 7.4, 37 °C, LMNG/CHS, lipid in cholate; transport substrate, acyl chain not stated.

In assay [2] the target is T1, Neo1. The assay is described as follows: cryo-EM structure, […] Å. The format is binding. Conditions: E1-ATP state; AMPPCP at the N and P domain interface; 1 mM (Results) or 2 mM (Methods) AMPPCP, 5 mM MgCl2.

In general, Km refers to the concentration of substrate that gives half-maximal velocity. lyso-PS: the Km at Neo1 [1] is 50.3 ± 8.8 µM.

Regarding `Nc1ncnc2c1ncn2[C@@H]1O[C@H](COP(=O)(O)OP(=O)(O)CP(=O)(O)O)[C@@H](O)[C@H]1O` [AMPPCP], the “cryo-EM structure, 5.6 Å” value at Neo1 [2] was “the AMPPCP density is clear and the molecule stabilizes the interface between the N and P domains”.
